Columns and labels:
[1] = tested on: keratinocyte differentiation markers KRT1, KRT10, Loricrin, and Involucrin; assay: inhibition of HBEGF-induced differentiation of HaCaT keratinocytes (RT-PCR); type: cell-based; conditions: with 2.5 ng/mL recombinant human HBEGF protein, 24 hours
Method: Human HaCaT keratinocytes were cultured in DMEM culture medium containing 10% fetal bovine serum, 100 U/mL penicillin, and 100 µg/mL streptomycin. The cells were seeded into a 96-well plate at a density of […] and placed in an incubator containing 5% carbon dioxide for culture at 37°C for 24 hours. An equal volume of DMSO was added into control well 1, a 2.5 ng/mL recombinant human HBEGF protein (Abcam, ab205523) was added into control well 2, and a 2.5 ng/mL recombinant human HBEGF protein and corresponding concentrations of test compounds were added into sample wells. The cells were continuously cultured for 24 hours, washed with PBS, and then collected by high-speed centrifugation. Total RNA was extracted using Trizol reagent (Sigma Aldrich). 1 µg of RNA was reverse-transcribed into cDNA using a cDNA reverse transcription kit (Transgene Biotech, AT311-03). 1.25 µL of a primer (with a primer sequence shown in Table 2), 10 µL of an iTag Universal SYBR Green supermix (Bio-Rad, 172-5125), and an appropriate amount of DEPC ultrapure water were added to formulate 20 µL of a reaction solution to perform an RT-PCR reaction. Upon completion of the reaction, the reaction solution was subjected to agarose gel electrophoresis to determine the mRNA expression level of keratinocyte differentiation markers KRT1, KRT10, Loricrin, and Involucrin. […]

[2] = tested on: chemotherapeutic drug-induced mouse model with hand-foot syndrome; assay: chemotherapeutic drug-induced mouse model with hand-foot syndrome; type: in vivo, ICR mice; conditions: for infiltration of inflammatory cells / thickening of the epidermal layer and the stratum corneum in the skin tissues / swelling of the toes caused by the modeling drugs: capecitabine and docetaxel models; for infiltration of inflammatory cells / thickening of the epidermal layer and the stratum corneum in the skin tissues / expression level of cytokine IL-8 in the skin tissues of the hind limb toes of the mice / expression level of cytokine IL-6 in the skin tissues of the hind limb toes of the mice: 3% ointment topical or nicotinamide 100 mg/kg oral; for swelling of the toes caused by the modeling drugs: compound of formula (I) 3% ointment topical or nicotinamide 100 mg/kg oral, once daily 16 days; for expression level of cytokine IL-8 in the skin tissues of the hind limb toes of the mice: capecitabine model; for expression level of cytokine IL-6 in the skin tissues of the hind limb toes of the mice: docetaxel model
Excerpt: After adaptive feeding for 7 days, SPF-grade ICR mice (male, 5-6 weeks old, with a body weight of approximately 35 g) were randomly divided into groups, including a blank control group (6 mice), a capecitabine modeling group (6 mice), a docetaxel modeling group (6 mice), a capecitabine + compound of formula (I) group (6 mice), a docetaxel + compound of formula (I) group (6 mice), a capecitabine + nicotinamide group (6 mice), and a docetaxel + nicotinamide group (6 mice). The groups were respectively administered corresponding modeling drugs by oral gavage (capecitabine at 200 mg/kg and docetaxel at 25 mg/kg) once daily; and the blank control group was administered an equivalent volume of normal saline. After administration with the chemotherapeutic drugs for 2 weeks, the ointments containing the compound of formula (I) (at a compound content of 3%) used in Example 10 were respectively applied topically in the groups, or nicotinamide was orally administered (100 mg/kg) once daily continuously for 16 days.
Measurement of the degree of swelling of toes: The degree of swelling of hind limb toes of the mice was measured using a toe swelling tester (KW-7C, Nanjing Calvin Biotechnology Co., Ltd.) before administration with the modeling drugs, after administration with the modeling drugs for 2 weeks, and before sacrifice, respectively. Before measurement, ankle joints of hind feet of the mice were marked at same positions before administration, after administration for 2 weeks, and before sacrifice. During measurement, water was properly located at the same level as the marked positions, and numerical values were recorded after becoming stable.
Pathological staining of skin tissues: Skin tissue samples were selected from hind limb toes of the mice and placed in 4% paraformaldehyde for fixation at room temperature for 4 hours. Then, the tissues were taken out and rinsed with running water for several hours. The samples were subjected to dehydration treatment with 70%, 80%, and 90% ethanol solutions, followed by treatment with a mixed solution of equal amounts of absolute alcohol and xylene for 15 minutes, and then permeabilized twice with a xylene solution for 15 minutes each time until the samples became transparent. The samples were placed in a mixture of half xylene and half paraffin for soaking for 15 minutes, and then, paraffin I and paraffin II were added for wax penetration for one hour, respectively. After embedding with paraffin, the samples were sectioned, baked, dewaxed, and hydrated. Then, the hydrated sections were placed in a hematoxylin solution (ZSGB-BIO, article No. 23041001) for staining for 3 minutes, and a differentiation solution of hydrochloric acid in ethanol was added for differentiation for 15 seconds. After rinsing with water, a Scott bluing solution (Servicebio, article No. 20230801) was added for bluing for 15 seconds. After rinsing with running water, the sections were stained with an eosin solution (Solarbio, article No. 33535) for 3 minutes, rinsed with running water, dehydrated, permeabilized, sealed, and inspected under a microscope.
Immunohistochemical staining: After baking, dewaxing, and hydration, paraffin sections of skin tissues of hind limb toes of the mice were subjected to antigen retrieval using a 0.2 M citric acid buffer solution (containing 1.534 g of citric acid, 3.1 g of sodium citrate, and 100 mL of distilled water, pH 4.7). Endogenous […] was removed using 3% hydrogen peroxide (Shandong Annjet High-Tech Disinfection Technology Co., Ltd., article No. 20290902), and the sections were incubated at room temperature for 10 minutes and then fully rinsed with a PBS buffer solution (containing 8 g of NaCl, 0.2 g of KCl, 1.44 g of Na2HPO4, and 1 M HCl, pH 7.4). The sections were permeabilized with 0.5% Triton-X-100 (AmyJet Scientific, article No. A-CSH436-100 mL), respectively permeabilized with mouse anti-IL-1β and rabbit IL-8 for 10 minutes, and not permeabilized with rabbit anti-IL-6. […]

Structure (SMILES) | mRNA expression level of the HaCaT differentiation markers KRT1, KRT10, Loricrin, and Involucrin [1] | infiltration of inflammatory cells [2] | thickening of the epidermal layer and the stratum corneum in the skin tissues [2] | swelling of the toes caused by the modeling drugs [2] | expression level of cytokine IL-8 in the skin tissues of the hind limb toes of the mice [2] | expression level of cytokine IL-6 in the skin tissues of the hind limb toes of the mice [2]
NC(=O)[C@H]1CCCc2c1[nH]c1ccc(Cl)cc21 [Compound of formula (I), (S)-6-chloro-2,3,4,9-tetrahydro-1H-carbazole-carboxamide] | significantly inhibited | no infiltration of inflammatory cells observed | effectively alleviate | significantly alleviate | significantly decrease | significantly decrease
NC(=O)c1cccnc1 [Nicotinamide, nicotinamide] | – | infiltration of inflammatory cells still observed | mildly alleviated | not observed that oral administration of nicotinamide at 100 mg/kg significantly alleviated the swelling | didn't have a significant impact | didn't have a significant impact
